In patent publication US11992489B2, “Substituted tetrahydroquinoline compounds as indoleamine 2,3-dioxygenase inhibitors” (Merck Sharp & Dohme LLC, priority 2018, dated 2024):

Assays:
IDO1 [1] = target: T1, IDO1 (Homo sapiens, UniProt P14902); assay: IDO1 cellular assay in HeLa cells stimulated with IFNγ; type: cell-based; conditions: IFNγ 100 ng/mL, 300 uM L-tryptophan, about 48 hours, fluorescence readout, read-out: HeLa Cell Potency, IC50
Description: Biological Assays IDO1 Cellular Assay in HeLa Cells Stimulated with IFNγ
HeLa cells were cultured in complete HeLa culture medium (90% EMEM, 10% heat-inactivated fetal bovine serum) and expanded to about 1×10^9 cells. The cells were then collected and frozen down at 1×10^7 cells/vial in 1 mL frozen medium (90% complete HeLa culture medium, 10% DMSO).
Compounds to be tested were serially diluted in ten 3-fold steps in DMSO starting from 10 mM DMSO stocks in Echo low volume plate(s). Compound dilutions or DMSO alone were then dispensed from the dilution plate(s) into Greiner black 384-well assay plate(s) (catalog #781086, 50 nL/well) using an Echo 550 acoustic liquid handler (Labcyte).
Frozen HeLa cells were thawed and transferred into HeLa assay medium (99% complete HeLa culture medium, 1% Pen/Strep) with 20 mL medium/vial of cells. The cells were spun down at 250 g in a table top centrifuge for 5 min and suspended in same volume of HeLa assay medium. The cells were then counted and adjusted to a density of 2×10^5 cells/mL in HeLa assay medium. Sterile L-tryptophan were added to the cells with final concentration of 300 uM L-tryptophan. A small aliquot (2 mL/plate) of HeLa cells were set aside and were not treated with IFNγ, to serve as the Max-E control.
HeLa cells with and without IFNγ were dispensed to the respective wells of 384-well assay plates containing the compounds. The plates were incubated for about 48 hours at a 37° C., 5% CO2 incubator. Afterwards, 12 μL of 0.5 M methyl isonipecotate in dimethyl sulfoxide were added into each well and the plates were sealed and incubated at 37° C. without CO2 overnight. The plates were centrifuged for 1 min at 200×g. The resulting fluorescence was measured in a Spectramax plate reader (Molecular Devices) with a 400 nm excitation filter and a 510 nm emission filter.
The fluorescence intensity of each well was corrected for the background observed in wells with non-IFNγ-treated cells and was expressed as a fraction of the intensity observed in wells of IFNγ-treated cells and DMSO only. Potencies were calculated by linear least squares fit to the four parameter logistic IC50 equation.

IDO1 [2] = target: T1, IDO1; assay: IDO1 human whole blood assay; type: cell-based; parameters: Human whole blood was drawn in sodium heparin coated tubes from healthy internal donors; from tissue; host or cells: human whole blood from healthy donors, stimulated with LPS/IFNγ; conditions: stimulant 100 ng/mL final, 18 h, kynurenine by LC/MS/MS, read-out: Human Whole Blood Potency, IC50
Description: IDO1 Human Whole Blood Assay
Compounds to be tested were serially diluted in ten 3-fold steps in DMSO starting from 10 mM. 3 μL of compound dilutions or DMSO alone were then dispensed from the dilution plate into a polypropylene 96-well assay plate containing 97 μL of RPMI medium using an Echo 555 acoustic liquid handler (Labcyte). Lipopolysaccharide (LPS) induced IFNγ was prepared in RPMI medium to a 10× of final conc. (1000 ng/mL), final concentration is 100 ng/mL.
Human whole blood was drawn in sodium heparin coated tubes from healthy internal donors. 240 μL of blood was transferred to each of the wells of a v-bottom 96 well plate. 30 μL of compound was transferred from intermediate dilution plate, and incubated for 15 min. 30 μL from stimulants was then transferred to blood and mixed thoroughly. Plate was covered with breathable membrane and incubated at 37° C. for overnight (18 h).
On day 2, isotope labeled standard solutions of kunurenine and tryptophan was made in water at 10× concentration and 30 μL was added to the blood at 3 μM final concentration. The assay plates were centrifuged at 300×G for 10 min with no brake to separate plasma from red blood cells. 60 μL of plasma samples was removed without disturbing red blood cells. Plasma was diluted with RPMI in 1:1 ratio and proteins were precipitated out with two volumes of Acetonitrile. The plates were centrifuged at 4000×G for 60 min. 20 μL of supernatant was carefully transferred to a 384 well plate containing 40 μL of 0.1% formic acid in water and analyzed by LC/MS/MS.
LC/MS/MS analyses were performed using Thermo Fisher's LX4-TSQ Quantum Ultra system. This system consists of four Agilent binary high-performance liquid chromatography (HPLC) pumps and a TSQ Quantum Ultra triple quadrupole MS/MS instrument. For each sample, 5 μL were injected onto an Atlantis T3 column (2.1 mm×150 mm, 3 μm particle size) from Waters. The mobile phase gradient pumped at 0.8 mL/min was used to elute the analytes from the column at 25° C. […] Compounds were titrated and IC50's were calculated by 4 parameter sigmoidal curve fitting formula.

T1 sequence (P14902 whole entry): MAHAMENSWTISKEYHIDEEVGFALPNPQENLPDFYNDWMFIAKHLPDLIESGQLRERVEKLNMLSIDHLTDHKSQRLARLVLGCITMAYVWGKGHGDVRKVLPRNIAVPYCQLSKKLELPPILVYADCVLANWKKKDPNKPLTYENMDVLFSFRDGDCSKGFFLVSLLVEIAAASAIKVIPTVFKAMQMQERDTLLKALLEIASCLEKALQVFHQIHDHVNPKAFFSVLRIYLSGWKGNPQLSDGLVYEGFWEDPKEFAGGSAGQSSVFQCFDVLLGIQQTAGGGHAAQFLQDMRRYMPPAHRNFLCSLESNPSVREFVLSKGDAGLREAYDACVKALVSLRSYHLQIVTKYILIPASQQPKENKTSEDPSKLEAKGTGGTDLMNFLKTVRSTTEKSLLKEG

Row | IC50 (IDO1 [1]) [nM] | IC50 (IDO1 [2]) [nM] | Structure (SMILES)
1 | 2.98 | 864 | O=C(NC1(c2ccc3c(n2)CCC[C@H]3Oc2cccc(Cl)c2)CC1)c1ccc(F)cc1 (single isomer, unassigned) [Example 2]
2 | 2.68 | 601 | O=C(NC1(c2ccc3c(n2)CCCC3Oc2cccc(Cl)c2)CC1)c1ccc(F)cc1 (stereo not drawn) [Example 1, N-(1-(5-(3-chlorophenoxy)-5,6,7,8-tetrahydroquinolin-2-yl)cyclopropyl)-4-fluorobenzamide]
3 | 6.99 | > 1000 | O=C(NC1(c2ccc3c(n2)CCC[C@@H]3Oc2cccc(Cl)c2)CC1)c1ccc(F)cc1 (single isomer, unassigned) [Example 3]
